Assay in all cases: Kinase selectivity, scanMAX Kinase assay panel (DiscoverX), % control at 1 uM
What all share (format): binding

Experiment [1] concerns the target T1, scanMAX Kinase assay panel (Homo sapiens, UniProt O14578).
T1 construct: purchased DiscoverX
The following applies: CIT; 1 uM; read-out: Percent Control (%). Summed up: (§1)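 Read-out is percent of control, derived from the signal with compound relative to positive and negative controls: (compound − positive)/(negative − positive) × 100. Each enzyme received test drug at 1 uM in DMSO, and values under 35% count as active.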

Experiment [2] addresses T2, scanMAX Kinase assay panel (Homo sapiens, UniProt O43683).
T2 construct: purchased DiscoverX
The following applies: BUB1; 1 uM; read-out: Percent Control (%). In a few lines:
as §1

Experiment [3] deals with T3, scanMAX Kinase assay panel (Homo sapiens, UniProt O94804).
T3 construct: purchased DiscoverX
T3 sequence (O94804 whole entry): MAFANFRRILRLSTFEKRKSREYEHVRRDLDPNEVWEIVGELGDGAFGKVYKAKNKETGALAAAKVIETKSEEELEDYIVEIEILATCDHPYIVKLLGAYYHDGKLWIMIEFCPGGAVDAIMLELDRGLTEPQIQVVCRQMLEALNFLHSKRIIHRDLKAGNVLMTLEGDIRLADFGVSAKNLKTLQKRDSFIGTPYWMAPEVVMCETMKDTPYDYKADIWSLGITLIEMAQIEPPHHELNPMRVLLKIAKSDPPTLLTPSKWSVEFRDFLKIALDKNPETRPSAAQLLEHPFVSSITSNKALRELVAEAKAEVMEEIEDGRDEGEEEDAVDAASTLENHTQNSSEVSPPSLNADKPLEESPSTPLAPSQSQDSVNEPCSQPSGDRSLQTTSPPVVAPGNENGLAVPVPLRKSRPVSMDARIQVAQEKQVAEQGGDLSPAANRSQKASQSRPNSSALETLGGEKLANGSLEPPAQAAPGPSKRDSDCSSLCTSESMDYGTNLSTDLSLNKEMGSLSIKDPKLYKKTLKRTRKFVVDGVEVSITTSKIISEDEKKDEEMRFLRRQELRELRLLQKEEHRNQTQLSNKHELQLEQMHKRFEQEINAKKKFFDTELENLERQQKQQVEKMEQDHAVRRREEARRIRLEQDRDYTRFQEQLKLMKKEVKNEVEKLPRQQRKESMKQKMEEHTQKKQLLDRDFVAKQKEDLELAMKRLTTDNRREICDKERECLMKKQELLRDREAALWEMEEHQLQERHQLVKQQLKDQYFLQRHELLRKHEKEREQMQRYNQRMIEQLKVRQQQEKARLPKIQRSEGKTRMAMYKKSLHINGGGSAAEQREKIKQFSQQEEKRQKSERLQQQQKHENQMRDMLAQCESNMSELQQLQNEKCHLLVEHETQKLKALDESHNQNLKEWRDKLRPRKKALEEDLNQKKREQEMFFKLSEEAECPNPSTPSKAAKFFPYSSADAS
The following applies: LOK; 1 uM; read-out: Percent Control (%). Summed up:
as §1

Experiment [4] deals with T4, scanMAX Kinase assay panel (Homo sapiens, UniProt P07949, V804L).
T4 construct: purchased DiscoverX
The conditions noted are these: RET (V804L); 1 uM; read-out: Percent Control (%). Summed up: as §1

Experiment [5] concerns the target T5, scanMAX Kinase assay panel (Homo sapiens, UniProt P11802).
T5 construct: purchased DiscoverX
The conditions noted are these: 1 uM, read-out: Percent Control (%). In a few lines:
as §1

Experiment [6] deals with T6, scanMAX Kinase assay panel (Homo sapiens, UniProt P51956).
T6 construct: purchased DiscoverX
T6 sequence (P51956 1-506): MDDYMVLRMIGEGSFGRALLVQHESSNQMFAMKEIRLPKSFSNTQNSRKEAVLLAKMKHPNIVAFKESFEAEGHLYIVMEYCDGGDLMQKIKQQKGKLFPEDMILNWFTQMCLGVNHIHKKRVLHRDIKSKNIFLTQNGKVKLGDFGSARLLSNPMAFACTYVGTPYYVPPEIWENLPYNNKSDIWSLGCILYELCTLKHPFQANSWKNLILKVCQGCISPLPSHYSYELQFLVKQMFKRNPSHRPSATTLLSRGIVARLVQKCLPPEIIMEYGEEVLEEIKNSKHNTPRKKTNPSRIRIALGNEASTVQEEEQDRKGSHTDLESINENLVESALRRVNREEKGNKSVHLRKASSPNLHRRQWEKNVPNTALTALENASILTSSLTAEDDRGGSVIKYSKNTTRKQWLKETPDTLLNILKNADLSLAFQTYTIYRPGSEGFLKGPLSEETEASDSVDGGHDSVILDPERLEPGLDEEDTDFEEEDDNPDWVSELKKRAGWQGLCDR
The conditions noted are these: NEK3; 1 uM; read-out: Percent Control (%). In a few lines:
as §1

Experiment [7] has as its target T7, scanMAX Kinase assay panel (Homo sapiens, UniProt P54756).
T7 construct: purchased DiscoverX
The following applies: EPHA5; 1 uM; read-out: Percent Control (%). Summed up:
as §1

The target in experiment [8] is T8, scanMAX Kinase assay panel (Homo sapiens, UniProt P68400).
T8 construct: purchased DiscoverX
The conditions noted are these: CSNK2A1; 1 uM; read-out: Percent Control (%). Summed up: as §1

Experiment [9] deals with T9, scanMAX Kinase assay panel (Homo sapiens, UniProt Q02750).
T9 construct: purchased DiscoverX
The following applies: MEK1; 1 uM; read-out: Percent Control (%). Summed up:
as §1

In experiment [10] the target is T10, scanMAX Kinase assay panel (Homo sapiens, UniProt Q02763).
T10 construct: purchased DiscoverX
The following applies: TIE2; 1 uM; read-out: Percent Control (%). Summed up: as §1

The target in experiment [11] is T11, scanMAX Kinase assay panel (Homo sapiens, UniProt Q8NG66).
T11 construct: purchased DiscoverX
T11 sequence (Q8NG66 1-645): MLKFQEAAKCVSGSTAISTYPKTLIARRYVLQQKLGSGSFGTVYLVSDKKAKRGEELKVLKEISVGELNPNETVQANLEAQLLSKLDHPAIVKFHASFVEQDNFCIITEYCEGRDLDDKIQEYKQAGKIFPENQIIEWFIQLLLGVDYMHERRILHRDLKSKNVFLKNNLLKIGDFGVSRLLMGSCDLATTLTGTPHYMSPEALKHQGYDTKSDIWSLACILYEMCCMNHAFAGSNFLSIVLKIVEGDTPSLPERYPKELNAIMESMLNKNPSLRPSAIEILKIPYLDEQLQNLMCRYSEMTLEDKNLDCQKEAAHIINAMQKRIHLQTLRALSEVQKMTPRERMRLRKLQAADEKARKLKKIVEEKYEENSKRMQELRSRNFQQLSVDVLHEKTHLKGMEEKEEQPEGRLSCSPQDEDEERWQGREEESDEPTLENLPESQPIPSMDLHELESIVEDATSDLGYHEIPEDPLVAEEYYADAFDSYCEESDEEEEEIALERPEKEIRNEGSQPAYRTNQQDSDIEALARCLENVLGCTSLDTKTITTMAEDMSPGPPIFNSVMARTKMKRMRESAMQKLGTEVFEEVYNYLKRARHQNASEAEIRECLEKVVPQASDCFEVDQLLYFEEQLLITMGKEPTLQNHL
The following applies: NEK11; 1 uM; read-out: Percent Control (%). In a few lines: as §1

Experiment [12] concerns the target T12, scanMAX Kinase assay panel (Homo sapiens, UniProt Q96NX5).
T12 construct: purchased DiscoverX
The following applies: CAMK1G; 1 uM; read-out: Percent Control (%). Summed up:
as §1

Experiment [13] has as its target T13, scanMAX Kinase assay panel (Homo sapiens, UniProt Q9NQU5).
T13 construct: purchased DiscoverX
The following applies: PAK6; 1 uM; read-out: Percent Control (%). In a few lines: as §1

The target of experiment [14] is T14, scanMAX Kinase assay panel (Homo sapiens, UniProt Q9Y243).
T14 construct: purchased DiscoverX
T14 sequence (Q9Y243 whole entry): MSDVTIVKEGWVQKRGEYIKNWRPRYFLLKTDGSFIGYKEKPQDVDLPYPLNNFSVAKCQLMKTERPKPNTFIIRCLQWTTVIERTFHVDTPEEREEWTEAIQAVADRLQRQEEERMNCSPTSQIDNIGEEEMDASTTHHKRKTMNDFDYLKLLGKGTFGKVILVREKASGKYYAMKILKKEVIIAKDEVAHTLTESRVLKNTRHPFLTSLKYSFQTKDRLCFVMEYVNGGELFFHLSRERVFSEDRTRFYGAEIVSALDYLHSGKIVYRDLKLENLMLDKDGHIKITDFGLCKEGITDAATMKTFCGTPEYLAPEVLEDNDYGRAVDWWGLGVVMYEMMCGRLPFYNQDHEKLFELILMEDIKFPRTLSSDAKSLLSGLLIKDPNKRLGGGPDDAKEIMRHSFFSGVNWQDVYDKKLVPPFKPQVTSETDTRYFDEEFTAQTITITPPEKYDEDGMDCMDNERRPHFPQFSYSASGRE
The following applies: AKT3; 1 uM; read-out: Percent Control (%). In a few lines:
as §1

The target of experiment [15] is T15, scanMAX Kinase assay panel (Homo sapiens, UniProt Q9Y2I7).
T15 construct: purchased DiscoverX
The conditions noted are these: PIKFYVE; 1 uM; read-out: Percent Control (%). In a few lines:
as §1

Where two headings read alike, the source gives them in different places.

T5 sequence (P11802 whole entry): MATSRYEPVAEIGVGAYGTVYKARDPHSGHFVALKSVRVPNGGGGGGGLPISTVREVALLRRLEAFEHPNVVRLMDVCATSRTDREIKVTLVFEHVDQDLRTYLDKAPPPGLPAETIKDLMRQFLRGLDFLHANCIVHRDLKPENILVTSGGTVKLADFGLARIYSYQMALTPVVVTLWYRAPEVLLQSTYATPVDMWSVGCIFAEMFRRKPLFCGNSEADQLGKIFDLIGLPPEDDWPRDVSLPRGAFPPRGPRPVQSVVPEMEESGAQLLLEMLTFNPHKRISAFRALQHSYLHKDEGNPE
T2 sequence (O43683 whole entry): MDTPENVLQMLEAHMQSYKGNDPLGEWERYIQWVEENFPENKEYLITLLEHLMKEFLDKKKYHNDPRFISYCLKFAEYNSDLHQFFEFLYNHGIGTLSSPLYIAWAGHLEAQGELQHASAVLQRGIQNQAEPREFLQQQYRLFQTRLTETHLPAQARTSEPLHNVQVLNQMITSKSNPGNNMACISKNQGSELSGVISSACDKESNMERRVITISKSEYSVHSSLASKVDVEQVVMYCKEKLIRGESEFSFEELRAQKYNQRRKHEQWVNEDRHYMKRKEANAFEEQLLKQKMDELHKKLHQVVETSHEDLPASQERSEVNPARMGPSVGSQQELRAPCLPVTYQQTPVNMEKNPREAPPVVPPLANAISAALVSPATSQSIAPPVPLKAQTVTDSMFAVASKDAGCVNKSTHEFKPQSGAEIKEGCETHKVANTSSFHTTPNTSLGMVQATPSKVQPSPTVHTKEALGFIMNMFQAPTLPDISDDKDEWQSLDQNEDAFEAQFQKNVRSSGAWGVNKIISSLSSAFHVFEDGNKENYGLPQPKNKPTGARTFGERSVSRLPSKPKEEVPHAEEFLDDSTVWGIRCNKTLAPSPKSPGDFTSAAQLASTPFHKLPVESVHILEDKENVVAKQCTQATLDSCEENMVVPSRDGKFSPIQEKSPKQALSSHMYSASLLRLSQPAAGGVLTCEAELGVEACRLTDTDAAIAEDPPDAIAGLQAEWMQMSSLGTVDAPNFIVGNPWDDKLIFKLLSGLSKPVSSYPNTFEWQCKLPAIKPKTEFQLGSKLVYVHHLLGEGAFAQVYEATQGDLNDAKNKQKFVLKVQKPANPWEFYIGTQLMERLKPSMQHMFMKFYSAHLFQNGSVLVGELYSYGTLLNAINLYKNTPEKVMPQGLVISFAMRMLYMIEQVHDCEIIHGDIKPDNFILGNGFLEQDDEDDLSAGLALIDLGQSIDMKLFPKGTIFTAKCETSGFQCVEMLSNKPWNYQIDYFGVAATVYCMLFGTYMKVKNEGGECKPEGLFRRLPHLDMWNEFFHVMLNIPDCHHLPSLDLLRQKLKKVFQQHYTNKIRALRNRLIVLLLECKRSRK
T1 sequence (O14578 whole entry): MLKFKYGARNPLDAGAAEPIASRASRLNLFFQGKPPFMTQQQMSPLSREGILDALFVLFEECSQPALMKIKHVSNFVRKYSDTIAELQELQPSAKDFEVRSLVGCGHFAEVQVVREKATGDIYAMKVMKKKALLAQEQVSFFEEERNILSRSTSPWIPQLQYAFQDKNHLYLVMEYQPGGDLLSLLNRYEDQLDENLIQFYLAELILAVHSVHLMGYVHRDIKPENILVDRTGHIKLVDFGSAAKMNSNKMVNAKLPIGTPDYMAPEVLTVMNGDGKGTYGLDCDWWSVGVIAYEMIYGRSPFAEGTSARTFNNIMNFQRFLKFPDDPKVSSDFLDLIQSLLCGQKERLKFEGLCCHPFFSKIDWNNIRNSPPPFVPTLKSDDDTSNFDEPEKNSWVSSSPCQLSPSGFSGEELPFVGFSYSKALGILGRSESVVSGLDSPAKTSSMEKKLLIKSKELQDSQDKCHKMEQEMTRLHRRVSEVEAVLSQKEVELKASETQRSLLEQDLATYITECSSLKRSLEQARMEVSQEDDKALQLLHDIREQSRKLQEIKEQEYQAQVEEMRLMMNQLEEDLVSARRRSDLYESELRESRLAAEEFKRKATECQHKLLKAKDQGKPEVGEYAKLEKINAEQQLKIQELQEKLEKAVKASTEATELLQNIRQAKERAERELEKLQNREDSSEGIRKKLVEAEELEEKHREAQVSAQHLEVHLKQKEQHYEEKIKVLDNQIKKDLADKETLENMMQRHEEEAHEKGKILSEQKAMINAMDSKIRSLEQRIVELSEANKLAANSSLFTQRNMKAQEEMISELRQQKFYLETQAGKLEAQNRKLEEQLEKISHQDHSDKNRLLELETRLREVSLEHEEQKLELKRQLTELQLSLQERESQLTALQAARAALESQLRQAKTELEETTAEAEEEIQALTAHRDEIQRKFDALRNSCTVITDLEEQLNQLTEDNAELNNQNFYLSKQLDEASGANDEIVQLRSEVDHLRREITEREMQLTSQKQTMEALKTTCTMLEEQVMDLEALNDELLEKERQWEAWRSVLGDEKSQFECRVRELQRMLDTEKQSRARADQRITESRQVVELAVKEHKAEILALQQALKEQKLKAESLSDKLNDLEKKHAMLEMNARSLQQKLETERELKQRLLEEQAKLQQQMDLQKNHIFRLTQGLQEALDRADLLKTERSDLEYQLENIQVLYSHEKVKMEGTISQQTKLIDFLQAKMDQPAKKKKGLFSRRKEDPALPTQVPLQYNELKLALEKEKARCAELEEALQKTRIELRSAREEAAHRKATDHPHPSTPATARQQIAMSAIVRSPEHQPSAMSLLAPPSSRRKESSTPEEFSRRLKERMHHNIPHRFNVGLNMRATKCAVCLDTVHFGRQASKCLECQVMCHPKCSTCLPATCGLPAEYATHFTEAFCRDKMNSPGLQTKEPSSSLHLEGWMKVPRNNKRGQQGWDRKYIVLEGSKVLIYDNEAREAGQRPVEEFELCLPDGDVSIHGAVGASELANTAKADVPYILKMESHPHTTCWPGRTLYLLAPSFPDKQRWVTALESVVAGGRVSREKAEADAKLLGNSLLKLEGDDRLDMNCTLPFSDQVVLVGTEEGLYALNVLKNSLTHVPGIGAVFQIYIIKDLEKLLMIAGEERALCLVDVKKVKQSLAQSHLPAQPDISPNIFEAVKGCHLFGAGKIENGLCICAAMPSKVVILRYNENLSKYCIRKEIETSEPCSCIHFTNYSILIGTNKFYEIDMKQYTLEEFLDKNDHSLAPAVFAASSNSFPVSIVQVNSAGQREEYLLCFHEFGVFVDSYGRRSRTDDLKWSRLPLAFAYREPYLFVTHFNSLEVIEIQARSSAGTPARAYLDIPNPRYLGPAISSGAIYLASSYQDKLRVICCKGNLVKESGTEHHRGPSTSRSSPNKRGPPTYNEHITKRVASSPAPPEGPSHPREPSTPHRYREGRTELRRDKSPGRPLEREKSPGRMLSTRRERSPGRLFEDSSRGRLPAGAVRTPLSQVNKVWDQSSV

As for `Cc1ccc(C(=O)Nc2ccc(CN3CCN(C)CC3)c(C(F)(F)F)c2)cc1C#Cc1cnc2c(Nc3cnn(C)c3)cccn12` [Example 1, 4-methyl-3-((8-((1-methyl-1H-pyrazol-4-yl)amino)imidazo[1,2-a]pyridin-3-yl)ethynyl)-N-(4-((4-methylpiperazin-1-yl)methyl)-3-(trifluoromethyl)phenyl)benzamide], the remaining binding at 1 µM is 0% in [1]; 84% in experiment [2]; 0% in experiment [3]; 0% in [4]; 84% in experiment [5] (CDK4-cyclinD1); 78% in experiment [5] (CDK4-cyclinD3). The remaining binding at 1 µM in [5] (CDK4) amounted to 83%; in experiment [6], 64%; in [7], 1%; in [8], 83%; in experiment [9] it was 100%; in experiment [10] it was 0%. In addition, the remaining binding at 1 µM is 13% in experiment [11]; 71% in experiment [12]; 66% in [13]; 99% in experiment [14]; 84% in [15].

For the compound `Cc1cn(-c2cc(NC(=O)c3ccc(C)c(C#Cc4cnc5c(Nc6cnn(C)c6)cccn45)c3)cc(C(F)(F)F)c2)cn1` [Example 12, 4-methyl-N-(3-(4-methyl-1H-imidazol-1-yl)-5-(trifluoromethyl)phenyl)-3-((8-((1-methyl-1H-pyrazol-4-yl)amino)imidazo[1,2-a]pyridin-3-yl)ethynyl)benzamide], the remaining binding at 1 µM stood at 0% in experiment [1]; 100% in [2]; 0% in experiment [3]; 2% in experiment [4]; 100% in experiment [5] (CDK4-cyclinD1); 100% in experiment [5] (CDK4-cyclinD3). Moreover, the remaining binding at 1 µM stood at 100% in [5] (CDK4); 86% in experiment [6]; 31% in experiment [7]; 100% in experiment [8]; 100% in experiment [9]; 0% in experiment [10]. In addition, the remaining binding at 1 µM is 100% in experiment [11]; 91% in experiment [12]; 84% in experiment [13]; 99% in experiment [14]; 65% in [15].

Consider `Cc1ccc(NC(=O)C2(C(=O)Nc3ccc(F)cc3)CC2)cc1C#Cc1cnc2c(Nc3cnn(C(C)C)c3)cccn12` [Example 78], for which the remaining binding at 1 µM came to 100% in experiment [1]; 100% in experiment [2]; 0% in experiment [3]; 100% in [4]; 100% in [5] (CDK4-cyclinD1); 100% in experiment [5] (CDK4-cyclinD3). In addition, the remaining binding at 1 µM in experiment [5] (CDK4) was determined as 100%; in [6] it was 96%; in experiment [7], 100%; in experiment [8], 100%; in experiment [9], 100%; in [10], 16%. The remaining binding at 1 µM in [11] turned out to be 100%; in experiment [12], 100%; in experiment [13], 97%; in experiment [14] it was 95%; in experiment [15], 91%.

The values are drawn from patent US10870647B2, “Imidazopyridine derivative, method for preparing same, and pharmaceutical composition containing same as active ingredient for preventing or treating cancer” (DAEGU-GYEONGBUK MEDICAL INNOVATION FOUNDATION, priority 2016, dated 2020).
